Test results as given in ChEMBL document CHEMBL5325410, “Ras superfamily GTPase activating proteins in cancer: Potential therapeutic targets?” (Eur J Med Chem, 2023).

Tests used:
[1] = molecular target: T1, ADP-ribosylation factor GTPase-activating protein 1 (Homo sapiens, UniProt Q8N6T3); assay: Inhibition of ARFGAP1 (unknown origin) at 10 uM relative to control
[2] = molecular target: T1, ADP-ribosylation factor GTPase-activating protein 1; assay: Inhibition of ARFGAP1 (unknown origin)
[3] = tested on: MDA-MB-231; assay: Inhibition of cell migration in human MDA-MB-231 cells at 2.5 uM measured after 12 hrs by transwell migration assay; format: functional

T1 sequence (Q8N6T3 whole entry): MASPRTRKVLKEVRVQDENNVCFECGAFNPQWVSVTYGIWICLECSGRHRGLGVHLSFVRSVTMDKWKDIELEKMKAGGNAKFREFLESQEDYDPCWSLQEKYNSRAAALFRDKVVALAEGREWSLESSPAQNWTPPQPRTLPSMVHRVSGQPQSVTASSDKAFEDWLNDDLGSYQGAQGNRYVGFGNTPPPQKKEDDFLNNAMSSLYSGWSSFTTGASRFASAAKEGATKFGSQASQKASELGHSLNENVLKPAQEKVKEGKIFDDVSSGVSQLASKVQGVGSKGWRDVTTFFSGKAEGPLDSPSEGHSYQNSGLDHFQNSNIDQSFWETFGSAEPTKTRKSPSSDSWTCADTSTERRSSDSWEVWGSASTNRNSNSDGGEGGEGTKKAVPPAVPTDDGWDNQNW

SMILES	inhibition [1] [%]	EC50 [2] [nM]	inhibition at 2.5 µM [3] [%]
OC[C@H](Cc1ccccc1)Nc1nc(Oc2ccc3c(c2)CCC3)nc2c1ncn2Cc1ccc(-c2ccccc2)cc1	84	500	80
FC(F)(F)c1cccc(Oc2nc(NCCc3cccc4ccccc34)c3ncn(Cc4ccc(-c5ccccc5)cc4)c3n2)c1	67		
